Several values for one entry are separate records, joined by “and”; a condition that tells them apart may be missing. Equal values may be shown once.
Legend:
[1] = tested on: human Low Density Lipoprotein; experiment: inhibition of copper catalyzed LDL autoxidation (FOX assay); format: biochemical
Description: The antioxidant performance of test compounds was evaluated by measuring the extent of low density lipoprotein hydroxyperoxide by copper catalyzed autoxidation using a published dye based color assay (FOX Assay, see Zadeh, “Methods in Enzymology”, 300, 58 (1999)). The assay is easily performed and read in a 96-well microtitre plate. Microtitre plate readers assure rapid measurement of optical density which gives precise replicate measurements. Samples are evaluated in duplicate of triplicate (n=2 or n=3) with FOX reagent to indicate the level of LDL-hydroperoxide formed. Samples containing only LDL and copper sulfate without test materials, served as a positive control for comparison with identical mixtures containing test materials (Tables 1-6). Inhibition is characterized by a lower optical density than that obtained without test materials (LDL and copper sulfate alone).
Briefly, the procedure involved mixing human Low Density Lipoprotein (Sigma Chemical Company L2139) at a concentration of between 200-1000 μg/mL in phosphate buffered saline pH−7.4 (Pierce #28372 BupH™ with copper sulfate to a final concentration of 10 μg/mL. Incubation at 25° C. or 37° C., open to air effected oxidation, the mixture was sampled at time zero and between 3 and 20 hours of incubation for measurement of hydroperoxide in the FOX assay. Samples 25-30 μL were diluted with 10 volumes of FOX reagent (ferrous ammonium sulfate and […], see Zadeh, noted above) and allowed to stand for 30 minutes. Thereafter they were read in a microtitre plate reader.
The inhibition of LDL oxidation by tricine, bicine, monocine, vitamin E, glycine-glycine (Good's buffer compound XIV) and seaweed extract was studied in the procedure above. Using the spectrophotometric technique known as the FOX assay, as described in Jiang, Z., et al., “Ferrous Ion Oxidation in Presence of Xylenol Orange for Detection of Lipid Hydroperoxide in Low Density Lipoprotein”, Analytical Biochemistry, Vol. 202, pp. 384-9 (1992), the oxidation of LDL's in the presence of known hydroxyl radical scavengers (vitamin E and Good's buffer glycine-glycine), and in the presence of therapeutic agents in accordance with the present invention (tricine, bicine, seaweed extract), was monitored. […] Norman Good et al., “Hydrogen Ion Buffers For Biological Research,” Biochemistry, vol. 5, p. 467 (1966). […] Table 6 is a comparison of tricine, bicine, monocine and vitamin E oxidation inhibition of LDL at 37° C., average n=3 measurement with standard deviation.

Mongolian gerbils [2] = experiment: gerbil forebrain ischemia (bilateral carotid occlusion): locomotor activity; format: in vivo, Mongolian gerbil; conditions: individual gerbil, Group 3, approximately 96 hours after surgery
Description: Mongolian gerbils are subjected to bilaterial occlusion of carotid arteries to cause complete forebrain ischemia. The Mongolian gerbil is extensively used as a model of cerebral ischemia because of its unusual cerebral circulation resulting in sensitive and pronounced destruction of hippocampal neuron cells. as a result, bilateral occlusion of carotid arteries causes complete forebrain ischemia. The gerbils were divided into three groups, Group 1 gerbils were sham control and were administered vehicle (control) orally without carotid occlusion. Group 2 received oral tricine treatment at 2000 mg/Kg in vehicle solution both 60 minutes before and after carotid occlusion. […] The arteries were occluded after a midline cervical incision was made to expose both common carotid arteries. The surgery was performed on a heated surface to maintain body temperature. On completion of surgery, the animals were placed on Vetbed® and allowed to recover under a heat lamp. (Group 1) was subjected to the same surgical procedures except that the carotid arteries were not occluded. The day of surgery is identified as Day 1. At approximately 96 hours after surgery, animals were tested for changes in locomotor activity, over two (2) consecutive periods of 15 minutes, using an automated cage. The automated cages contained photoactivated beams at two (2) positions (a low height and a high height) that recorded the number of crossings each gerbil made in each of two consecutive 15 minute periods.

[3] = tested on: hippocampal neurons, CA1 area; experiment: gerbil forebrain ischemia (bilateral carotid occlusion): histology of CA1 neuronal damage; format: in vivo, Mongolian gerbil; set-up: Total Rating, severity of neuronal damage to CA1 area, individual gerbil: scale not given here; conditions: oral tricine 2000 mg/Kg 60 minutes before and after carotid occlusion, day 5
Description: Mongolian gerbils are subjected to bilaterial occlusion of carotid arteries to cause complete forebrain ischemia. The Mongolian gerbil is extensively used as a model of cerebral ischemia because of its unusual cerebral circulation resulting in sensitive and pronounced destruction of hippocampal neuron cells. as a result, bilateral occlusion of carotid arteries causes complete forebrain ischemia. The gerbils were divided into three groups, Group 1 gerbils were sham control and were administered vehicle (control) orally without carotid occlusion. Group 2 received oral tricine treatment at 2000 mg/Kg in vehicle solution both 60 minutes before and after carotid occlusion. Group […] gerbils received vehicle (control) 60 minutes before and after occlusion. The arteries were occluded after a midline cervical incision was made to expose both common carotid arteries. The surgery was performed on a heated surface to maintain body temperature. On completion of surgery, the animals were placed on Vetbed® and allowed to recover under a heat lamp. (Group 1) was subjected to the same surgical procedures except that the carotid arteries were not occluded. The day of surgery is identified as Day 1. Animals were killed on day 5, after completion of locomotor testing, by overdose with anaesthetic and perfusion with saline followed by a solution containing 10% neutral buffered formalin to fix the brain in situ. The brains were removed by dissection, 5 μm sections were taken at the level of the dorsal hippocampus, to coincide with CA1 area, and stained with haematoxylin and eosin. the sections were examined under light microscope, rated for severity of neuronal damage to the CA1 area.

rats = conditions: both, rat, in vivo, po, 14 days
Description: It is essential that any amino-acid-based compound used in accordance with the present invention have a low toxicity such that internal use in humans and other mammals is safe and well tolerated. Amino acid-based compounds used in accordance with the invention generally display no acute toxic effects at 1000 mg/Kg in rats after 2 weeks following oral administration. Preferably, amino acid-based compounds used in accordance with the present invention will display no effects at oral doses of at least 2000 mg/Kg in rats. […] For example, a cohort of rats can be fed a given dosage of an amino acid-based compound of general formula (I) and the relative toxic effects of the cohort can be monitored in comparison to a cohort fed a normal diet using standard EPA protocols.
Two cohorts of rats, each consisting of five females and five males, were marked and weighed. Each rat in a single cohort was administered 2000 mg/kg of tricine in a single oral dosage. Survival and body weight of the rats in each cohort was evaluated after 14 days to determine relative acute toxicity. Survival and general pathology was identical for both the control cohort and the tricine-treated cohort.

[4] = tested on: New Zealand white rabbits; experiment: atherosclerotic lesions in thoracic aorta of cholesterol-fed rabbits; format: in vivo, rabbit; conditions: 12 weeks
Source text: Ten female new Zealand white rabbits were divided into two groups of five (5) rabbits and subjected to an identical diet of Purina® rabbit chow supplemented with 1% cholesterol. […] A second group of five (5) rabbits received 1% tricine in their drinking water. Both groups were maintained under this feeding protocol for a period of twelve (12) weeks. Plasma samples were taken at study initiation and at two (2) week intervals throughout the study for measurement of total cholesterol. Systemic observations and body weights were regularly recorded. At twelve (12) weeks, the thoracic aorta was harvested from each animal, sliced longitudinally and preserved in 10% neutral formalin for subsequent analysis. Each aorta was individually stained with Sudan IV, and photographed for the extent of atherosclerotic lesions. Comparisons of percent atheroscledrotic lesions on the luminal surface between the groups enabled evaluation of the effect of tricine test article on atherosclerosis in this rabbit model.

[5] = tested on: hippocampal neurons, CA1 area; experiment: gerbil forebrain ischemia (bilateral carotid occlusion): histology of CA1 neuronal damage; format: in vivo, Mongolian gerbil; set-up: scale not given here; conditions: Group 3, 6 animals examined
Mongolian gerbils [6] = experiment: gerbil forebrain ischemia (bilateral carotid occlusion): locomotor activity; format: in vivo, Mongolian gerbil; conditions: individual gerbil, Group 3, approximately 96 hours after surgery, first 15 minute period
[7] = 10 mM, time 0 hours, 37° C., average n=3, none 0.03
[8] = 10 mM, time 3 hours, 37° C., average n=3, none 0.99
[9] = 1% tricine in drinking water, 1% cholesterol diet, Sudan IV stain
[10] = 1% tricine in drinking water, five rabbits, control mean 65

**Q.** Which results are given for O=C(O)CN(CCO)CCO [Bicine, N,N-bis(hydroxyethyl)glycine]?
**A.** FOX assay OD (LDL hydroperoxide) [1, 7]: −0.02; FOX assay OD (LDL hydroperoxide) [1, 8]: 0.02; FOX assay OD (LDL hydroperoxide) ([1]; Bicine 25 μM, time 0 hours, room temperature, average n = 3): −0.010; FOX assay OD (LDL hydroperoxide) ([1]; Bicine 25 μM, time 4 hours, room temperature, average n = 3, none 0.295): 0.050; FOX assay OD (LDL hydroperoxide) ([1]; Bicine 50 μM, time 0 hours, room temperature, average n = 3): −0.007; FOX assay OD (LDL hydroperoxide) ([1]; Bicine 50 μM, time 4 hours, room temperature, average n = 3, none 0.295): 0.030; FOX assay OD (LDL hydroperoxide) ([1]; Bicine 100#M, time 0 hours, room temperature, average n = 3): −0.002; FOX assay OD (LDL hydroperoxide) ([1]; Bicine 100#M, time 4 hours, room temperature, average n = 3, none 0.295): 0.04

**Q.** How did the “FOX assay OD (LDL hydroperoxide)” value [1, 7] turn out when O=C(O)CNCCO [Monocine, N-hydroxyethyl glycine] was run?
**A.** −0.04

**Q.** What about the “FOX assay OD (LDL hydroperoxide)” value [1, 8] of the same molecule?
**A.** 0.05

**Q.** With O=C(O)CNC(CO)(CO)CO [Tricine, N-tris(hydroxymethyl)methyl glycine] as the molecule, how does the “locomotor activity, beam crossings, High beam, Total” value (Mongolian gerbils [2]) read?
**A.** 71 and 51 and 76 and 56 and 174

**Q.** And the “locomotor activity, beam crossings, Low beam, Total” value (Mongolian gerbils [2])?
**A.** 665 and 691 and 525 and 615 and 727 and 451

**Q.** What about the “locomotor activity, beam crossings, Low beam, 15 min” value (Mongolian gerbils [2]; first 15 minute period) of the same molecule?
**A.** 455 and 559 and 456 and 553 and 543 and 372

**Q.** What about the “locomotor activity, beam crossings, High beam, 30 min” value (Mongolian gerbils [2]; second 15 minute period) of the same molecule?
**A.** 15 and 7 and 9 and 16 and 12 and 64

**Q.** What about the “locomotor activity, beam crossings, Low beam, 30 min” value (Mongolian gerbils [2]; second 15 minute period) of the same molecule?
**A.** 210 and 132 and 69 and 62 and 184 and 79

**Q.** And the “Side 1 Rating, severity of neuronal damage to CA1 area, individual gerbil” value [3]?
**A.** 3 (Marked→approximately 75% to 100% of neurons damaged) and 1 (Minimal→up to approximately 25% of neurons damaged) (5×)

**Q.** And the “Side 2 Rating, severity of neuronal damage to CA1 area, individual gerbil” value [3]?
**A.** 3 (Marked→approximately 75% to 100% of neurons damaged) and 1 (Minimal→up to approximately 25% of neurons damaged) (4×) and 0

**Q.** And the “Total Rating, severity of neuronal damage to CA1 area, individual gerbil” value ([3]; sum of both sides)?
**A.** 6 and 2 (4×) and 1

**Q.** What about the “preliminary acute toxicity level” value (rats) of the same molecule?
**A.** > 2000 mg/kg

**Q.** What about the “Arch Area, percent atherosclerotic lesions on luminal surface, individual rabbit” value [4, 9] of the same molecule?
**A.** 19% and 39% and 27% and 17% and 22%

**Q.** And the “Descending Area, percent atherosclerotic lesions on luminal surface, individual rabbit” value [4, 9]?
**A.** 21% (2×) and 28% and 8% and 17%

**Q.** What about the “Total Area, percent atherosclerotic lesions on luminal surface, individual rabbit” value [4, 9] of the same molecule?
**A.** 20% and 38% and 26% and 14% and 21%

**Q.** What about the “Arch Area, Mean Value” ([4]; 1% tricine in drinking water, five rabbits, control mean 63) of the same molecule?
**A.** 25%

**Q.** What about the “Descending Area, Mean Value” [4, 10] of the same molecule?
**A.** 19%

**Q.** What about the “Total Area, Mean Value” [4, 10] of the same molecule?
**A.** 24%

**Q.** What about the “Arch Area, Median Value” ([4]; 1% tricine in drinking water, five rabbits, control median 65) of the same molecule?
**A.** 22%

**Q.** And the “Total Area, Median Value” ([4]; 1% tricine in drinking water, five rabbits, control median 67)?
**A.** 21%

**Q.** What about the “Descending Area, Median Value” ([4]; 1% tricine in drinking water, five rabbits, control median 68) of the same molecule?
**A.** 21%

**Q.** And the “reduced plaque deposits in the aorta” value ([4]; tricine treated rabbits versus control group)?
**A.** 63%

**Q.** What about the “Mean Score for Group” value ([5]; occluded vehicle Group 7: 4.3) of the same molecule?
**A.** 2.5

**Q.** And the “Total Score for Group” value ([5]; occluded vehicle Group 7: 13 (3 animals))?
**A.** 15

**Q.** And the “locomotor activity, beam crossings, High beam, 15 min” value (Mongolian gerbils [6])?
**A.** 56 and 44 (2×) and 67 and 55 and 110

**Q.** What about the “FOX assay OD (LDL hydroperoxide)” value [1, 7] of the same molecule?
**A.** −0.01

**Q.** And the “FOX assay OD (LDL hydroperoxide)” value [1, 8]?
**A.** 0.05

**Q.** And the “FOX assay OD (LDL hydroperoxide)” value ([1]; Tricine 25 μM, time 0 hours, room temperature, average n = 3)?
**A.** −0.012

**Q.** And the “FOX assay OD (LDL hydroperoxide)” value ([1]; Tricine 25 μM, time 4 hours, room temperature, average n = 3, none 0.295)?
**A.** 0.061

**Q.** And the “FOX assay OD (LDL hydroperoxide)” value ([1]; Tricine 50 μM, time 0 hours, room temperature, average n = 3)?
**A.** −0.007

**Q.** What about the “FOX assay OD (LDL hydroperoxide)” value ([1]; Tricine 50 μM, time 4 hours, room temperature, average n = 3, none 0.295) of the same molecule?
**A.** 0.038

**Q.** And the “FOX assay OD (LDL hydroperoxide)” value ([1]; Tricine 100 μM, time 0 hours, room temperature, average n = 3)?
**A.** 0.0645

**Q.** What about the “FOX assay OD (LDL hydroperoxide)” value ([1]; Tricine 100 μM, time 4 hours, room temperature, average n = 3, none 0.295) of the same molecule?
**A.** 0.028
